# In ChEMBL document CHEMBL6182889, “Discovery of the first-in-class DOT1L PROTAC degrader” (Eur J Med Chem, 2025):
# Calls of active or inactive are those of the source. No cut-off for these calls is given here.
# Tests used:
# [1] = target: Histone-lysine N-methyltransferase 2A (Homo sapiens) (UniProt Q03164); experiment: Inhibition of human MLL1 using nucleosomes and SAM as substrate at 10 uM by radiometric Hotspot assay
# [2] = test system: MCF-10A; experiment: Cytotoxicity against human MCF-10A cells assessed as inhibition of cell growth incubated for 7 days by CCK-8 assay; assay type: toxicity, cell-based; details: 168 h, time 7 day
# [3] = target: T1, von Hippel-Lindau disease tumor suppressor/Histone-lysine N-methyltransferase, H3 lysine-79 specific (Homo sapiens, UniProt Q8TEK3+P40337); experiment: PROTAC activity at VHL/DOTIL in mixed-lineage leukemia rearranged (MLL-r) human THP-1 cells assessed as induction of DOT1L degradation by measuring reduction in DOTIL protein level at 3 uM incubated for 24 hrs by western blot analysis relative to control; assay type: cell-based; design: scale not given: the % may be the effect or the level left
# Target sequence in this assay (P40337 whole entry, looked up): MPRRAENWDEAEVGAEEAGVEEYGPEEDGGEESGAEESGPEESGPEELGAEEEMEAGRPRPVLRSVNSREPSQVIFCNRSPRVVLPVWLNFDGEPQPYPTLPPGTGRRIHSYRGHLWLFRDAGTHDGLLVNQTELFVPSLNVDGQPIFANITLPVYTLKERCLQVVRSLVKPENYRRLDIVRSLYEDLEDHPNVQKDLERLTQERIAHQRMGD
# Target sequence in this assay (Q8TEK3 whole entry, looked up): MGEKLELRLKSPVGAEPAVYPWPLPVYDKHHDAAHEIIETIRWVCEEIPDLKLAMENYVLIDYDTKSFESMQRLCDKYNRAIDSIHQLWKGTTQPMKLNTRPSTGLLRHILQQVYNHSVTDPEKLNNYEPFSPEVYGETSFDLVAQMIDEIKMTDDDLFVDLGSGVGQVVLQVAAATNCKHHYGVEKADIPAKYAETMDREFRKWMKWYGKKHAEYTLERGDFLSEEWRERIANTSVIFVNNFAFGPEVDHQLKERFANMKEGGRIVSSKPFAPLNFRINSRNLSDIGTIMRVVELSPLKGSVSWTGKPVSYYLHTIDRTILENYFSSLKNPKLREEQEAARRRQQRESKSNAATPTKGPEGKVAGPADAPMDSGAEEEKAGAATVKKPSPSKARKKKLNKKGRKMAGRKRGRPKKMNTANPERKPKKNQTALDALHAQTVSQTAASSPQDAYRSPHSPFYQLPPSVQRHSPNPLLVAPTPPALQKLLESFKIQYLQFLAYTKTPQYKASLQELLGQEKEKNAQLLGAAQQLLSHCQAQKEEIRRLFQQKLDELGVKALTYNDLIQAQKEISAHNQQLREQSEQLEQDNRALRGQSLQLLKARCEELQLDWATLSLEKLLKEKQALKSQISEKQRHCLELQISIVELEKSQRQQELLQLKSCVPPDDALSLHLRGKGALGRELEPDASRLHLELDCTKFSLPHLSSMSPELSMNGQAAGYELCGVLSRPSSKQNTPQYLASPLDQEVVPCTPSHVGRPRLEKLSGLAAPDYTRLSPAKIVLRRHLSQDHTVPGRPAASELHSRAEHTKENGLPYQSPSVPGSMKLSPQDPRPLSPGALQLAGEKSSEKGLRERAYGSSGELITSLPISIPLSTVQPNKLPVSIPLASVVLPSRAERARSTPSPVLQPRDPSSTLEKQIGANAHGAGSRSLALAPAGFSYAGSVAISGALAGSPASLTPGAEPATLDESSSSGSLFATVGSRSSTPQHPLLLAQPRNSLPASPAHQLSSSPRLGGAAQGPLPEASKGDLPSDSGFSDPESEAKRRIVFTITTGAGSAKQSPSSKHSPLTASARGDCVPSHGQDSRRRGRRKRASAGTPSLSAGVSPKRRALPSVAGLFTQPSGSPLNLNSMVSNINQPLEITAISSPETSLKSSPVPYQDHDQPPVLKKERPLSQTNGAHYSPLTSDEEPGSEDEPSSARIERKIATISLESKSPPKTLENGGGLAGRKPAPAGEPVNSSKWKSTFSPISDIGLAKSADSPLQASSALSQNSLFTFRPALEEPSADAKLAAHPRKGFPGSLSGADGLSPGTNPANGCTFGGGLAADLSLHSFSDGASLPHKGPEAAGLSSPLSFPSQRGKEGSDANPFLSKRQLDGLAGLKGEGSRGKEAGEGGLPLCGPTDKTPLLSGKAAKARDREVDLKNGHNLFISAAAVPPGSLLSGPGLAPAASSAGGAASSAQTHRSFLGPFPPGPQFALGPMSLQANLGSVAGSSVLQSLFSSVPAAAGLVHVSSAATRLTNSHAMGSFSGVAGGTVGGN
# [4] = target: T1, von Hippel-Lindau disease tumor suppressor/Histone-lysine N-methyltransferase, H3 lysine-79 specific; experiment: PROTAC activity at VHL/DOTIL in mixed-lineage leukemia rearranged (MLL-r) human THP-1 cells assessed as induction of DOT1L degradation by measuring fold change in DOTIL protein level at 0.3 uM incubated for 24 hrs by western blot analysis relative to control; assay type: cell-based
# Target sequence in this assay (P40337 whole entry, looked up): as the sequence (P40337 whole entry, looked up) above
# Target sequence in this assay (Q8TEK3 whole entry, looked up): as the sequence (Q8TEK3 whole entry, looked up) above
# [5] = target: T1, von Hippel-Lindau disease tumor suppressor/Histone-lysine N-methyltransferase, H3 lysine-79 specific; experiment: PROTAC activity at VHL/DOT1L in mixed-lineage leukemia rearranged (MLL-r) human MV4-11 cells assessed as induction of DOT1L degradation incubated for 24 hrs by western blot analysis; assay type: cell-based
# [6] = target: Protein arginine N-methyltransferase 1 (Homo sapiens) (UniProt Q99873); experiment: Inhibition of human PRMT1 using histone H4 and SAM as substrate at 10 uM by radiometric Hotspot assay
# Chain of Protein arginine N-methyltransferase 1 (Homo sapiens) (Q99873 whole entry, looked up): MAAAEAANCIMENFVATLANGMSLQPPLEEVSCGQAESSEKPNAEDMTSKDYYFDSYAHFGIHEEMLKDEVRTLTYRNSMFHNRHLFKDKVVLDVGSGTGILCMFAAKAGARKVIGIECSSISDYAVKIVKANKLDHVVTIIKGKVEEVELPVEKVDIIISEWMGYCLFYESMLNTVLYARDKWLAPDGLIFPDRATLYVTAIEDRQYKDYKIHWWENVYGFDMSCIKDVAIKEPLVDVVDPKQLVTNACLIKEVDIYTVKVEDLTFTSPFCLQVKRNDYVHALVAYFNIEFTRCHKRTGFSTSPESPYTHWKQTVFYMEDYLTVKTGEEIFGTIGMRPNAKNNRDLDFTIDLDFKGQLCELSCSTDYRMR
# [7] = test system: MOLM-13; experiment: Antiproliferative activity against mixed-lineage leukemia rearranged (MLL-r) human MOLM-13 cells assessed as inhibition of cell growth incubated for 7 days by CCK-8 assay; assay type: functional, cell-based; details: time 7.0 day
# [8] = target: T1, von Hippel-Lindau disease tumor suppressor/Histone-lysine N-methyltransferase, H3 lysine-79 specific; experiment: PROTAC activity at VHL/DOT1L in mixed-lineage leukemia rearranged (MLL-r) human MV4-11 cells assessed as maximal induction of DOT1L degradation incubated for 24 hrs by western blot analysis relative to control; assay type: cell-based
# Target sequence in this assay (P40337 whole entry, looked up): as the sequence (P40337 whole entry, looked up) above
# Target sequence in this assay (Q8TEK3 whole entry, looked up): as the sequence (Q8TEK3 whole entry, looked up) above
# [9] = target: DNA (cytosine-5)-methyltransferase 1 (Homo sapiens) (UniProt P26358); experiment: Inhibition of human DNMT1 using poly(dI-dC) and SAM as substrate at 10 uM by radiometric Hotspot assay
# Chain of DNA (cytosine-5)-methyltransferase 1 (Homo sapiens) (P26358 whole entry): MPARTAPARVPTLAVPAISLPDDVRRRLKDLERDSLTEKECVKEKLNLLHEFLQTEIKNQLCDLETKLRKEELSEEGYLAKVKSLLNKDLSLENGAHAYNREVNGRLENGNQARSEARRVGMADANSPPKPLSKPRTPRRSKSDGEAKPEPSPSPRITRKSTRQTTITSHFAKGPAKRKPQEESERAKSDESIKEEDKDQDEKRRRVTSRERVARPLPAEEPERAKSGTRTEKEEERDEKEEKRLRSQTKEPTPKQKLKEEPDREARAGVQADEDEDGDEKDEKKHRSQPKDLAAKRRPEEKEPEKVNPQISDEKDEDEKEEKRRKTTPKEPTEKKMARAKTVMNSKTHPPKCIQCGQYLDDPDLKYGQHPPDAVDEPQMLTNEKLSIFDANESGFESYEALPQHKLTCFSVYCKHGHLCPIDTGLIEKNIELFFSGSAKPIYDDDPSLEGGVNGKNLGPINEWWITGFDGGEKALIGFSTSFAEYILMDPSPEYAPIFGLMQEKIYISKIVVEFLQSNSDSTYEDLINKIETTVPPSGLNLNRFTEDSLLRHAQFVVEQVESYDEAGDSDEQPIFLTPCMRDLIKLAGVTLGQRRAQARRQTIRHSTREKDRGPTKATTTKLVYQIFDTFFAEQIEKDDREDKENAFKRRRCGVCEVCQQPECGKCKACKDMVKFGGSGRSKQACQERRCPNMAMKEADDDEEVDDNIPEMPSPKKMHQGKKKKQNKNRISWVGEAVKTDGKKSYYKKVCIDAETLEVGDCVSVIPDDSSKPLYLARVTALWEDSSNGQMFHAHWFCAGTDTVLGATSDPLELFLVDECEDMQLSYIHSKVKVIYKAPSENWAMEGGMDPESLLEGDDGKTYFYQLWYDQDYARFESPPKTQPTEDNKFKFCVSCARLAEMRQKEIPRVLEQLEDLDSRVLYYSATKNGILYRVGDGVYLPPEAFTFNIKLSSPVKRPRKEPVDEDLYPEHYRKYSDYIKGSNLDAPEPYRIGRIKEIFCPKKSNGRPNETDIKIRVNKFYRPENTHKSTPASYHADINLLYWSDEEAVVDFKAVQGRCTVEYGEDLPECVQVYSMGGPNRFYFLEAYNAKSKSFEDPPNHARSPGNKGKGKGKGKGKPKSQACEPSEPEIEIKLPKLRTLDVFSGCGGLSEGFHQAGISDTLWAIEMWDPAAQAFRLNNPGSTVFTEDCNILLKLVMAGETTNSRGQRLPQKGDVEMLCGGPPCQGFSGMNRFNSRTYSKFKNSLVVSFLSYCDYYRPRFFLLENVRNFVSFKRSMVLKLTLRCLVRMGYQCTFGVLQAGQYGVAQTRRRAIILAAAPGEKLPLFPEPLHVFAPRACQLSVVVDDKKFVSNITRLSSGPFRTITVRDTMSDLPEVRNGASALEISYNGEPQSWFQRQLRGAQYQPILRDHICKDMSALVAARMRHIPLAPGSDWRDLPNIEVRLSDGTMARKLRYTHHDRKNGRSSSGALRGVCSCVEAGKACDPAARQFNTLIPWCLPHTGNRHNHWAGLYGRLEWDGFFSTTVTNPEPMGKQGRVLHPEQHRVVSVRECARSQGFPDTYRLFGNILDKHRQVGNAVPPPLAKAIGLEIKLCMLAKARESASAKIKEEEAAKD
# [10] = target: T1, von Hippel-Lindau disease tumor suppressor/Histone-lysine N-methyltransferase, H3 lysine-79 specific; experiment: PROTAC activity at VHL/DOT1L in mixed-lineage leukemia rearranged (MLL-r) human THP-1 cells assessed as induction of DOTIL degradation by measuring fold change in DOT1L protein level at 3 uM incubated for 1 hr by western blot analysis relative to control; assay type: cell-based
# Target sequence in this assay (P40337 whole entry, looked up): as the sequence (P40337 whole entry, looked up) above
# Target sequence in this assay (Q8TEK3 whole entry, looked up): as the sequence (Q8TEK3 whole entry, looked up) above
# [11] = target: T1, von Hippel-Lindau disease tumor suppressor/Histone-lysine N-methyltransferase, H3 lysine-79 specific; experiment: PROTAC activity at VHL/DOT1L in mixed-lineage leukemia rearranged (MLL-r) human THP-1 cells assessed as induction of DOTIL degradation by measuring fold change in DOT1L protein level at 3 uM incubated for 4 hrs by western blot analysis relative to control; assay type: cell-based
# Target sequence in this assay (P40337 whole entry, looked up): as the sequence (P40337 whole entry, looked up) above
# Target sequence in this assay (Q8TEK3 whole entry, looked up): as the sequence (Q8TEK3 whole entry, looked up) above
# [12] = target: T1, von Hippel-Lindau disease tumor suppressor/Histone-lysine N-methyltransferase, H3 lysine-79 specific; experiment: PROTAC activity at VHL/DOT1L in mixed-lineage leukemia rearranged (MLL-r) human THP-1 cells assessed as induction of DOTIL degradation by measuring fold change in H3K79Me2 level at 3 uM incubated for 24 hrs by western blot analysis relative to control; assay type: cell-based
# Target sequence in this assay (P40337 whole entry, looked up): as the sequence (P40337 whole entry, looked up) above
# Target sequence in this assay (Q8TEK3 whole entry, looked up): as the sequence (Q8TEK3 whole entry, looked up) above
# [13] = target: T1, von Hippel-Lindau disease tumor suppressor/Histone-lysine N-methyltransferase, H3 lysine-79 specific; experiment: PROTAC activity at VHL/DOT1L in mixed-lineage leukemia rearranged (MLL-r) human THP-1 cells assessed as induction of DOTIL degradation by measuring fold change in H3K79Me2 level at 3 uM incubated for 1 hr by western blot analysis relative to control; assay type: cell-based
# [14] = test system: MV4-11; experiment: Effect on DOTIL mRNA expression in mixed-lineage leukemia rearranged (MLL-r) human MV4-11 cells at 3 uM incubated for 24 hrs by RT-qPCR analysis; assay type: functional, cell-based
# [15] = target: T1, von Hippel-Lindau disease tumor suppressor/Histone-lysine N-methyltransferase, H3 lysine-79 specific; experiment: PROTAC activity at VHL/DOT1L in mixed-lineage leukemia rearranged (MLL-r) human MV4-11 cells assessed as induction of DOTIL degradation by measuring fold change in DOT1L protein level at 3 uM incubated for 4 hrs by western blot analysis relative to control; assay type: cell-based
# [16] = target: T2, Histone-lysine N-methyltransferase EHMT2 (Homo sapiens) (UniProt Q96KQ7); experiment: Inhibition of human G9a using Histone H3 and SAM as substrate at 10 uM by radiometric Hotspot assay
# T2 sequence (whole entry): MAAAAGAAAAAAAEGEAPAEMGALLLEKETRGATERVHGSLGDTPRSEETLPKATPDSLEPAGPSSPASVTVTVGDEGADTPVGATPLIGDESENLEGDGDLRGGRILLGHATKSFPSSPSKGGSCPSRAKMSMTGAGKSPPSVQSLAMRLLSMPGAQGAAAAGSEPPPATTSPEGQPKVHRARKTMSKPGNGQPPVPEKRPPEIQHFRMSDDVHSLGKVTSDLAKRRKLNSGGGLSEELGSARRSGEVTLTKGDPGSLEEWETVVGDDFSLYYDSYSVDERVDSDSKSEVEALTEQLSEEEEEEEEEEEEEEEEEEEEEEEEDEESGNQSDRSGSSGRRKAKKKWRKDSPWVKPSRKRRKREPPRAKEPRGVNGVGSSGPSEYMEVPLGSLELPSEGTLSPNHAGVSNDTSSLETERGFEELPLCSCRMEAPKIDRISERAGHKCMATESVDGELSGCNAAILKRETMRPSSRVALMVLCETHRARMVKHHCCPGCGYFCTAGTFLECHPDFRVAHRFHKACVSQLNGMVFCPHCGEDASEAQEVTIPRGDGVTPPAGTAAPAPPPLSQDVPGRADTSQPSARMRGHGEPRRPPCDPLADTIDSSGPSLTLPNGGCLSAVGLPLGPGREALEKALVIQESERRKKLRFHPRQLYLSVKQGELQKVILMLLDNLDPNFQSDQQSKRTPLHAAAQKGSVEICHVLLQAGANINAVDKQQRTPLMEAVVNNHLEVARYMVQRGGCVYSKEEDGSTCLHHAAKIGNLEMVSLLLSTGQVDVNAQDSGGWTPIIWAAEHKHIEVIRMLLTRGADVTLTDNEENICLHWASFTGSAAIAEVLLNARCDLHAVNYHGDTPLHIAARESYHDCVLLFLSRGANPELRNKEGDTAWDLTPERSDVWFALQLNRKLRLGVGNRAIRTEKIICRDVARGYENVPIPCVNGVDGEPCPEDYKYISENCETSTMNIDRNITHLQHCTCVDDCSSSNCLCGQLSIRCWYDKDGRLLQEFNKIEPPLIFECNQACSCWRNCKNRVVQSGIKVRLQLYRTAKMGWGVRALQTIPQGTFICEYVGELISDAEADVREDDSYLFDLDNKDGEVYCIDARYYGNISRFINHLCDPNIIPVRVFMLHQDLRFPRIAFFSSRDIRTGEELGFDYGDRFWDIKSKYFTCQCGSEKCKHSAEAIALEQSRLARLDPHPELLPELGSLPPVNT
compound,measurement,setting,value
Cc1ncsc1-c1ccc([C@H](CC(=O)NCCCCCCNC(=O)COc2nc(N)nc(Nc3cc(S(N)(=O)=O)ccc3N[C@@H](c3cccc4c3OC(F)(F)O4)c3ncccc3Cl)n2)NC(=O)[C@@H]2C[C@@H](O)CN2C(=O)[C@@H](NC(=O)C2(F)CC2)C(C)(C)C)cc1,inhibition,[1],inactive
same,Activity,[2],Non-toxic
same,Activity,[3],77%
same,fold change (FC),[4],0.08
same,Activity,[5],Dose-dependent-effect
same,DC50,[5],0.025 µM
same,inhibition,[6],inactive
same,Activity,[7],Active; Reduced Potency In Molm-13 Cells Relative To Mv4-11 Cells Observed
same,Activity,[8],93%
same,inhibition,[9],inactive
same,fold change (FC),[10],0.33
same,fold change (FC),[11],0.4
same,fold change (FC),[12],0.29
same,fold change (FC),[13],0.99
same,Activity,[14],inactive
same,fold change (FC),[15],0.27
same,inhibition,[16],inactive
